Patent publication US20260240838A1, “USE OF NITRONE COMPOUNDS OR PHARMACEUTICALLY ACCEPTABLE SALTS THEREOF IN COMBINATION WITH SGLT-2 INHIBITORS” (GUANGZHOU MAGPIE PHARMACEUTICALS CO., LTD., priority 2022, published 2026)

Columns and labels:
[1] = FAERS-based analysis, rank order; cited from earlier work
db/db mice [2] = assay: Blood glucose testing in db/db mice, TBN/TN-2 alone and with Empagliflozin (Example 1); format: in vivo; settings: for Changes in blood glucose: 6 weeks, compared to Model group; for blood sugar (in words): in combination with a SGLT-2 inhibitor
Excerpt: (§1) Db/db mice are type II diabetes mice caused by leptin receptor gene defect located on chromosome 4. They began to drink, eat, urinate and be obese at the age of 4 weeks. With the increase of age, they have obvious characteristics of hyperglycemia, hyperlipidemia and insulin resistance. Their pathogenesis is very similar to that of type II diabetes patients. With the aggravation of diabetes, db/db mice have a series of complications. The main pathological changes of kidney tissue are dilation of glomerular mesangial interstitium, thickening of glomerular basement membrane, excessive accumulation of extracellular matrix, etc. It is a good model to study the early morphological changes of DKD kidney.
(§2) 6-week-old db/db mice were given adaptive feeding for 1 week (i.e. 7 weeks), with TBN and TN-2 administered separately and in combination with Empagliflozin twice a day (fixed at 9:00-10:00 am and 3:00-4:00 pm, with an interval of 6 hours), for a continuous 6 weeks of administration.
During the experiment, blood was collected from the tail vein of mice before the start of administration (7 weeks old) to measure their blood glucose levels; After the completion of administration (at 13 weeks of mouse age, i.e. the end of the experiment), serum was taken and the blood glucose levels of each group of mice were measured using a fully automated biochemical analyzer.

db/db mice [3] = assay: Detection of 24-hour urinary microalbumin in db/db mice by ELISA kit (Example 1); format: in vivo; settings: for Changes in urinary microalbumin: 24-hour urine, compared to Model group; for 24-hour urinary microalbumin (in words): in combination with a SGLT-2 inhibitor
Excerpt: as §1, §2
Db/db mice were tested for 24-hour urinary microalbumin at 4 and 6 weeks after drug treatment. Each group of mice was placed in a metabolic cage, drinking water freely, and 24-hour urine samples were collected. After centrifugation and precipitation, the levels of microalbuminuria in the 24-hour urine of each group of mice were detected using an ELISA kit.

IL-6 = assay: Detection of the level of IL-6 in serum of db/db mice by ELISA kit (Example 1); format: in vivo; settings: for Changes in IL-6: 6 weeks, serum of db/db mice, compared to Model group; for content of IL-6 in the serum of model animals (in words): alone or in combination with a SGLT-2 inhibitor (such as Entegliflozin)
Excerpt: as §1, §2
(§3) After 6 weeks of administration, the whole blood was left to stand at room temperature for 1 hour. Then, it was transferred to a centrifuge and centrifuged at 3000 rpm for 10 minutes. The upper layer of serum was taken out and placed in an EP tube and stored in a −20° C. freezer for later use. Detection the level of IL-6 and IL-1β in serum of mice in each group using ELISA kit.

IL-1β = assay: Detection of the level of IL-1β in serum of db/db mice by ELISA kit (Example 1); format: in vivo; settings: 6 weeks, compared to Model group
Excerpt: as §1, §2, §3

[4] = tested on: Patients of type II diabetic kidney disease; assay: Clinical trial of TBN and TBN + SGLT2i: change of UACR relative to baseline (Example 3); format: in vivo, human
Protocol: The present invention adopts a test design of multicenter, randomized, double-blind, placebo-controlled parallel control.
Subjects of the experiments: Patients of type II diabetic kidney disease were taken as the subjects in the experiments (all signed the informed consent form). In at least 2 of the 3 morning urine in the screening period, the urinary microalbumin/creatinine ratio (UACR) is of ≥30 mg/g and <300 mg/g.
The medication schedule: Administration of 180 consecutive days. In this example, SGLT2i is commercially available SGLT2i, selected from Engliflozin, Dapagliflozin, and Cargliflozin: Engliflozin once daily, 10 mg; Dapagliflozin once daily, 10 mg; Kagliflozin once daily, 100 mg. In the three subjects in the 300 mg TBN+SGLT2i group, one subject took Engliflozin and two subjects took Dapagliflozin; in the three subjects in the 600 mg TBN+SGLT2i group, all took Dapagliflozin; in the […] in the 1200 mg TBN+SGLT2i group, two subjects took Canagliflozin, one subject took Entegliflozin, and one subject took Dapagliflozin; in the SGLT2i group, one subject took Dapagliflozin.

db/db mice [5] = assay: Urinary albumin creatinine ratio in db/db mice; format: in vivo; settings: in combination with a SGLT-2 inhibitor
[6] = Empagliflozin 2.5 mg/kg twice/day i.g.
[7] = Empagliflozin 5 mg/kg twice/day i.g.

**Q.** With `CCOc1ccc(Cc2cc([C@@H]3O[C@H](CO)[C@@H](O)[C@H](O)[C@H]3O)ccc2Cl)cc1` [Dapagliflozin] as the compound, how does the “signal intensity comparison of urinary tract infections” value [1] read?
**A.** Its value is “dapagliflozin>canagliflozin>empagliflozin”.

**Q.** Which “Changes in blood glucose” value (db/db mice [2]; [6]) does the source give for `OC[C@H]1O[C@@H](c2ccc(Cl)c(Cc3ccc(O[C@H]4CCOC4)cc3)c2)[C@H](O)[C@@H](O)[C@@H]1O` [Empagliflozin, reference compound] here?
**A.** Its value is −38.03%.

**Q.** And the “Changes in blood glucose” value (db/db mice [2]; [7])?
**A.** The value was −44.33%.

**Q.** What about the “Changes in urinary microalbumin” value (db/db mice [3]; [6]) of the same compound?
**A.** The value was −4.18%.

**Q.** And the “Changes in urinary microalbumin” value (db/db mice [3]; [7])?
**A.** The value was −18.62%.

**Q.** What about the “Changes in IL-6” value (IL-6; [6]) of the same compound?
**A.** The value was −8.55%.

**Q.** And the “Changes in IL-6” value (IL-6; [7])?
**A.** The value was −75.05%.

**Q.** What about the “Changes in IL-1β” value (IL-1β; [6]) of the same compound?
**A.** Its value is −2.36%.

**Q.** And the “Changes in IL-1β” value (IL-1β; [7])?
**A.** The value was −16.32%.

**Q.** And the “signal intensity comparison of urinary tract infections” value [1]?
**A.** The value was “dapagliflozin>canagliflozin>empagliflozin”.

**Q.** For `Cc1nc(C)c(/C=[N+](\[O-])C(C)(C)C)nc1C` [TBN, tetramethylpyrazine nitrone], which “Changes in blood glucose” value (db/db mice [2]; TBN 10 mg/kg twice/day i.g.) is on record?
**A.** The value was −0.80%.

**Q.** And the “Changes in blood glucose” value (db/db mice [2]; TBN 30 mg/kg twice/day i.g.)?
**A.** Its value is −17.13%.

**Q.** What about the “blood sugar (in words)” value (db/db mice [2]) of the same compound?
**A.** The value was “synergistically lower”.

**Q.** And the “Changes in urinary microalbumin” value (db/db mice [3]; TBN 10 mg/kg twice/day i.g.)?
**A.** The value was −0.61%.

**Q.** And the “Changes in urinary microalbumin” value (db/db mice [3]; TBN 30 mg/kg twice/day i.g.)?
**A.** Its value is −23.09%.

**Q.** And the “24-hour urinary microalbumin (in words)” value (db/db mice [3])?
**A.** The value was “reduce”.

**Q.** And the “Changes in IL-6” value (IL-6; TBN 10 mg/kg twice/day i.g.)?
**A.** The value was −36.43%.

**Q.** What about the “Changes in IL-6” value (IL-6; TBN 30 mg/kg twice/day i.g.) of the same compound?
**A.** The value was −58.34%.

**Q.** What about the “content of IL-6 in the serum of model animals (in words)” value (IL-6) of the same compound?
**A.** The value was “significantly reduce”.

**Q.** And the “Changes in IL-1β” value (IL-1β; TBN 10 mg/kg twice/day i.g.)?
**A.** The value was −5.88%.

**Q.** And the “Changes in IL-1β” value (IL-1β; TBN 30 mg/kg twice/day i.g.)?
**A.** Its value is 0.20%.

**Q.** What about the “Percentage of changes in UACR relative baseline, Day 90 LS Mean” value ([4]; TBN 300 mg twice/day po, n = 18, Day 90) of the same compound?
**A.** Its value is −1.48%.

**Q.** And the “Percentage of changes in UACR relative baseline, Day 90 LS Mean” value ([4]; TBN 600 mg twice/day po, n = 19, Day 90)?
**A.** Its value is −43.32%.

**Q.** And the “Percentage of changes in UACR relative baseline, Day 90 LS Mean” value ([4]; TBN 1200 mg twice/day po, n = 14, Day 90)?
**A.** The value was −37.08%.

**Q.** And the “urinary albumin creatinine ratio (in words)” value (db/db mice [5])?
**A.** The value was “reduce”.

**Q.** Which results are given for `Cc1nc(/C=[N+](\[O-])C(C)(C)C)c(C)nc1/C=[N+](\[O-])C(C)(C)C` [TN-2]?
**A.** blood sugar (in words) (db/db mice [2]): synergistically lower; 24-hour urinary microalbumin (in words) (db/db mice [3]): reduce; content of IL-6 in the serum of model animals (in words) (IL-6): significantly reduce; urinary albumin creatinine ratio (in words) (db/db mice [5]): reduce
